{
  "source": "patent US6727287B2",
  "about": "“Toluene sulfonamide-containing anti-tumor composition and method of use thereof” (PTS International, Inc., priority 2001, dated 2004)",
  "tested_on": "normal (i.e., non-neoplastic) cells",
  "assay": "Exposure of normal (non-neoplastic) cells to para-toluene sulfonamide",
  "details": "normal (non-neoplastic) cells exposed to the compound",
  "data": [
    {"molecule": "Cc1ccc(S(N)(=O)=O)cc1", "note": "[para-toluene sulfonamide]", "values": [
      {"measurement": "histopathological changes in normal cells", "result": "almost no histopathological changes"}
    ]}
  ]
}
